Assay results taken from patent US10822349B2, “Macrocyclic purines for the treatment of viral infections” (JANSSEN SCIENCES IRELAND UNLIMITED COMPANY, priority 2012, dated 2020).

Key:
Assay type in all cases: cell-based
human TLR7 = molecular target: T1, human TLR7 (Homo sapiens, UniProt Q9NYK1); assay: TLR7 cellular reporter assay (HEK293 TLR7-NFκB-luc); conditions: lowest effective concentration; HEK293 transiently transfected with TLR7 and NFκB-luc; 6 hours incubation
T1 construct: expressed in transfected cells; host or cells: HEK293
T1 sequence (Q9NYK1 27-1049): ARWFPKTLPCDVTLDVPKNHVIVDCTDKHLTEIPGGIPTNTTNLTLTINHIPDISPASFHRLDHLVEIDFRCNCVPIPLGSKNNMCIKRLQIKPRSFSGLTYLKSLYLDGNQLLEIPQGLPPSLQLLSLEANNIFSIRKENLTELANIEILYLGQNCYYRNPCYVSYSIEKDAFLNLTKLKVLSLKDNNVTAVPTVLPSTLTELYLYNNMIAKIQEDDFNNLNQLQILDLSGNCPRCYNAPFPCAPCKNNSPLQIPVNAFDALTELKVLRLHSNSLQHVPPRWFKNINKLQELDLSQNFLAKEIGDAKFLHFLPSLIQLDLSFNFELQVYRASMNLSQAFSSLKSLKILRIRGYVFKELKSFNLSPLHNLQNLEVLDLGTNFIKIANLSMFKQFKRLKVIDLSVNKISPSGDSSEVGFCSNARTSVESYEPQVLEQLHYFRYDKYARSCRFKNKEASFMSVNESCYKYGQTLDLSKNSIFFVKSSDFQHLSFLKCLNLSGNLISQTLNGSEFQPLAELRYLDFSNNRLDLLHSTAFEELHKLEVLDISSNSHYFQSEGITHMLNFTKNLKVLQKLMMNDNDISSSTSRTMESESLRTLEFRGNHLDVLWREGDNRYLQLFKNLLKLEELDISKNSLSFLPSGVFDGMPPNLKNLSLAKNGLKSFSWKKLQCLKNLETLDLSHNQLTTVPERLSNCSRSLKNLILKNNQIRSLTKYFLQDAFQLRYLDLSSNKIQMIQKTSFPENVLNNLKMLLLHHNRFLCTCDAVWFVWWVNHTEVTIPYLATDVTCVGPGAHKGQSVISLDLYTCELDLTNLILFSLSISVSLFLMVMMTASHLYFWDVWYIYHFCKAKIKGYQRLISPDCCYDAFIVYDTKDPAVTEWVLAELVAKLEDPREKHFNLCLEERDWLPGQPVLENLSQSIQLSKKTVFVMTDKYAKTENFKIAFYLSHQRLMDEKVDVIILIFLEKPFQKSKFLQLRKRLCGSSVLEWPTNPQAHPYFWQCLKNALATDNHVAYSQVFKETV
Procedure, shortened: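 HEK293 cells transiently co-transfected with CMV-TLR7 or TLR8 plasmid plus NFκB-luciferase reporter, 48 h post-transfection, then exposed to compound (added in 4% DMSO) for 6 h at 37 °C. Luciferase read-out; quadruplicate dose-response, LEC defined as concentration giving effect at least two-fold above assay SD.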

human TLR8 = molecular target: T2, human TLR8 (Homo sapiens, UniProt Q9NR97); assay: TLR8 cellular reporter assay (HEK293 TLR8-NFκB-luc); conditions: lowest effective concentration; HEK293 transiently transfected with TLR8 and NFκB-luc; 6 hours incubation
T2 construct: expressed in transfected cells; host or cells: HEK293
T2 sequence (Q9NR97 27-1041): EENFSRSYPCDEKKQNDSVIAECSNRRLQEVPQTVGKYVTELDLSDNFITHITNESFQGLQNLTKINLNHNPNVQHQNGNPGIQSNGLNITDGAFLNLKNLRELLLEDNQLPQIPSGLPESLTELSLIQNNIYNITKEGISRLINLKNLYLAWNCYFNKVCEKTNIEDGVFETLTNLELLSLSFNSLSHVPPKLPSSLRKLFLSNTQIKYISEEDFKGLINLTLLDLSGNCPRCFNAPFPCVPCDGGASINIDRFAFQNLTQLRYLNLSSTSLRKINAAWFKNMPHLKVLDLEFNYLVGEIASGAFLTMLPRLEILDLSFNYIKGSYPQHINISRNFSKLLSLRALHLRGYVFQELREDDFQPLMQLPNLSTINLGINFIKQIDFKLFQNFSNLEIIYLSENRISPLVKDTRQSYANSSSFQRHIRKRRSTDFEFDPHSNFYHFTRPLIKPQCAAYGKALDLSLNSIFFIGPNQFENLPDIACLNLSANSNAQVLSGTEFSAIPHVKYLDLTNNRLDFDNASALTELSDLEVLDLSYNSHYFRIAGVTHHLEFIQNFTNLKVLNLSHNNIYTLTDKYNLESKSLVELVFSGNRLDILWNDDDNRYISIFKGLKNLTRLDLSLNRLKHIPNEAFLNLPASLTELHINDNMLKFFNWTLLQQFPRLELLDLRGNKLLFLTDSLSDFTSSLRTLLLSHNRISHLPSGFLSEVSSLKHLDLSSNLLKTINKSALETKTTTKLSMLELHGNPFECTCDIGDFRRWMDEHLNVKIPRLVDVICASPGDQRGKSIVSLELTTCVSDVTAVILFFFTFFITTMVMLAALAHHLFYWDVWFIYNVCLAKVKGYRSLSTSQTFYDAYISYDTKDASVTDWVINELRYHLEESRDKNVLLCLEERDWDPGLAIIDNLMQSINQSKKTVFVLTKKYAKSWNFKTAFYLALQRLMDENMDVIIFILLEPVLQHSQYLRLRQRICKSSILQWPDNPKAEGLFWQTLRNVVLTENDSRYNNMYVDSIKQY
Protocol: The ability of compounds to activate human TLR7 and TLR8 was assessed in a cellular reporter assay using HEK293 cells transiently transfected with a TLR7 or TLR8 expression vector and NFκB-luc reporter construct. Briefly, HEK293 cells were grown in culture medium (DMEM supplemented with 10% FCS and 2 mM Glutamine). For transfection of cells in 10 cm dishes, cells were detached with Trypsin-EDTA, transfected with a mix of CMV-TLR7 or TLR8 plasmid (750 ng), NFκB-luc plasmid (375 ng) and a transfection reagent and incubated 48 hours at 37° C. in a humidified 5% CO2 atmosphere. Transfected cells were then detached with Trypsin-EDTA, washed in PBS and resuspended in medium to a density of 1.67×10^5 cells/mL. Thirty microliters of cells were then dispensed into each well in 384-well plates, where 10 μL of compound in 4% DMSO was already present. Following 6 hours incubation at 37° C., 5% CO2, the luciferase activity was determined by adding 15 μl of Steady Lite Plus substrate (Perkin Elmer) to each well and readout performed on a ViewLux ultraHTS microplate imager (Perkin Elmer). Dose response curves were generated from measurements performed in quadruplicates. Lowest effective concentrations (LEC) values, defined as the concentration that induces an effect which is at least two fold above the standard deviation of the assay, were determined for each compound.

[1] = tested on: interferon production in human PBMC; assay: Interferon production in human PBMC, read out on HEK-ISRE-luc reporter cells; conditions: Homo sapiens, PBMC, 24 h, lowest effective concentration, PBMC supernatant after overnight incubation transferred to HEK-ISRE-luc cells, read-out: PBMC HEK-ISRE-luc (LEC; μM)
Procedure, shortened: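 Human PBMCs from at least two donors (2×10^5/well, RPMI with 10% human AB serum) incubated overnight with compounds; conditioned supernatant transferred onto HEK-ISRE-luc reporter cells for 24 h. Luciferase read-out reported as LEC, with recombinant interferon alfa-2a as standard.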

Row | HEK293 TLR7-NFκB-luc (LEC; μM) (human TLR7) [µM] | LEC on HEK293 TLR8-NFκB-luc (human TLR8) [µM] | SMILES | minimal effective concentration [1] [µM]
1 | 1.3 | > 19.49 | Nc1nc2nc3c1nc(O)n3Cc1ncccc1OCC/C=C/CO2 [Compound 40] | 0.15
2 | 0.0068 | 0.27 | COc1cc2cc(c1)OC/C=C/COc1nc(N)c3nc(O)n(c3n1)C2 [Compound 75] | 0.0026
3 | 3.43 | 5.48 | Nc1nc2nc3c1nc(O)n3Cc1ccccc1C/C=C/CCO2 [Compound 47] | 2.34
4 | 1.93 | 11.16 | Nc1nc2nc3c1nc(O)n3Cc1ncccc1/C=C\CCCO2 [Compound 41] | 0.48
5 | 1.16 | 20.46 | Nc1nc2nc3c1nc(O)n3Cc1ncccc1OCC/C=C\CO2 [Compound 39] | 0.22
